Like-named read-outs stand apart in the source and are kept apart here.
Key:
human TNF-α [1] = biological target: T1, human TNF-α (Homo sapiens, UniProt P01375); experiment: TNF-α thermal melt assay; format: binding; design: Amino acids 77-233 of Human TNF-α protein with an N-terminal GST tag; GST (N, cleaved yes); made in house; host or cells: Escherichia coli (BL21 NiCo)
Description: Protein was purified using glutathione agarose purification columns (Pierce™, Waltham, MA, USA). Following purification, the GST tag was removed using HRV3c protease (Pierce™, Waltham, MA, USA) and the GST tag and the TNF-α were separated via ion exchange chromatography using a 20 mM HEPES pH 8.0 buffer system ramping from 0 to 1 M NaCl over 12 column volumes with 5 ml of Q Sepharose (HiScreen Q HP, Cytiva™, Marlborough, MA, USA). The final protein includes the amino acids GPLGSG at the N-terminus of the protein.
Protein was heated from 20° C. to 95° C. at one degree per minute in a Roche Opus384 qPCR machine.
Target sequence in this assay (P01375 77-233): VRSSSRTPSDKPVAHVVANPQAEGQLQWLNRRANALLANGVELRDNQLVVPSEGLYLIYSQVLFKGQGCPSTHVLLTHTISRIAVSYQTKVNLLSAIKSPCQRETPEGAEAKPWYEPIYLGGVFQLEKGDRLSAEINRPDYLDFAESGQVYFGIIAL

human TNF-α [2] = biological target: T1, human TNF-α; experiment: TNF-α functional assay (hHEK-TNF-α SEAP reporter cells); format: cell-based; design: purchased ACROBiosystems TNA-H4211
Text: Human HEK TNF-αcells (hHEK-TNF-α cells; InvivoGen Catalog #hkb-tnfdmyd; San Diego, CA, USA) are human embryonic kidney HEK293 cells that are stably transfected with the reporter gene, secreted alkaline phosphatase (SEAP). The hHEK-TNF-α cells allow for the detection of bioactive human and murine TNF-α via the activation of the NF-kB-inducible promoter and subsequent production of SEAP. Bioactivity of commercial human TNF-α protein (ActiveMax® Human TNF-α Protein, Tag Free, Low Endotoxin; available by ACROBiosystems Catalog #TNA-H4211; Newark, DE, USA) was determined in this reporter system.
Test molecules were dissolved in 100% DMSO and serially diluted by either 3-fold serial dilution or 4-fold serial dilution. […] TNF-α protein was added at the previously determined ECso. Plates containing cells, test molecules, and cytokine were incubated overnight for 18-24 hours at 37° C., 5% CO2.
The level of SEAP in the supernatant of each well was quantified using the Quanti Blue™ Solution (InvivoGen Catalog #rep-qba2; San Diego, CA, USA), a reagent with a colorimetric change in the presence of SEAP. To perform the Quanti-Blue assay: 20 L of the sample supernatant after the overnight 18-24 hour incubation was added to 180 L of Quanti Blue™ Reagent and incubated for 45 minutes at 37° C. […] Inhibition of TNF-α signaling was calculated utilizing GraphPad Prism (San Diego, CA, USA).
Target sequence in this assay (P01375 77-233 limits assumed): as the sequence (P01375 77-233) above

[3] = thermal melt, SYPRO Orange, Kd calculated as in Matulis et al., read-out: TM Kd
[4] = hHEK-TNF-α cells, SEAP readout, TNF-α added at EC80 (1.034 pM), 18-24 hours, read-out: TNF-α Function IC50

SMILES: CN1CCN(Cc2ccc(-c3c[nH]c4ccncc34)c(OCCc3ccc(-c4cccc5ccncc45)cc3)c2)CC1 [Intermediate 25]
- Kd (human TNF-α [1]): < 1 nM
- IC50 (human TNF-α [2]): 240 nM

SMILES: O=C(O)CCOCCOCCOCCOCCOCCOCCOCCOCCC(=O)N1CCN(Cc2ccc(-c3c[nH]c4ccncc34)c(OCCc3ccc(-c4cccc5ccncc45)cc3)c2)CC1 [Intermediate 4]
- Kd (human TNF-α [1]; [3]): 69 nM
- IC50 (human TNF-α [2]; [4]): 230 nM

SMILES: CC(C)(C)OC(=O)CCOCCOCCOCCOCCOCCOCCOCCOCCC(=O)N1CCN(Cc2ccc(-c3c[nH]c4ccncc34)c(OCCc3ccc(-c4cccc5ccncc45)cc3)c2)CC1 [Intermediate 3]
- Kd (human TNF-α [1]; [3]): 120 nM
- IC50 (human TNF-α [2]; [4]): 1000 nM

SMILES: CC(C)(C)OC(=O)CCOCCOCCC(=O)N1CCN(Cc2ccc(-c3c[nH]c4ccncc34)c(OCCc3ccc(-c4cccc5ccncc45)cc3)c2)CC1 [Intermediate 23]
- Kd (human TNF-α [1]; [3]): 31 nM
- IC50 (human TNF-α [2]; [4]): 337 nM

SMILES: O=C(O)CCOCCOCCOCCOCCOCCOCCC(=O)N1CCN(Cc2ccc(-c3c[nH]c4ccncc34)c(OCCc3ccc(-c4cccc5ccncc45)cc3)c2)CC1 [Intermediate 19]
- IC50 (human TNF-α [2]; [4]): 370 nM

SMILES: CC(C)(C)OC(=O)CCOCCOCCOCCOCCOCCOCCC(=O)N1CCN(Cc2ccc(-c3c[nH]c4ccncc34)c(OCCc3ccc(-c4cccc5ccncc45)cc3)c2)CC1 [Intermediate 18]
- IC50 (human TNF-α [2]; [4]): 810 nM

SMILES: O=C(O)CCOCCOCCC(=O)N1CCN(Cc2ccc(-c3c[nH]c4ccncc34)c(OCCc3ccc(-c4cccc5ccncc45)cc3)c2)CC1 [Intermediate 24]
- Kd (human TNF-α [1]; [3]): 220 nM
- IC50 (human TNF-α [2]; [4]): 247 nM

From patent US20260256921A1, “BIFUNCTIONAL MOLECULES TO TARGET DEGRADATION OF TUMOR NECROSIS FACTOR” (Biohaven Therapeutics Ltd., priority 2023, published 2026)
